Target: T1, GRK2 (Homo sapiens, UniProt P25098)
T1 sequence (P25098 1-689): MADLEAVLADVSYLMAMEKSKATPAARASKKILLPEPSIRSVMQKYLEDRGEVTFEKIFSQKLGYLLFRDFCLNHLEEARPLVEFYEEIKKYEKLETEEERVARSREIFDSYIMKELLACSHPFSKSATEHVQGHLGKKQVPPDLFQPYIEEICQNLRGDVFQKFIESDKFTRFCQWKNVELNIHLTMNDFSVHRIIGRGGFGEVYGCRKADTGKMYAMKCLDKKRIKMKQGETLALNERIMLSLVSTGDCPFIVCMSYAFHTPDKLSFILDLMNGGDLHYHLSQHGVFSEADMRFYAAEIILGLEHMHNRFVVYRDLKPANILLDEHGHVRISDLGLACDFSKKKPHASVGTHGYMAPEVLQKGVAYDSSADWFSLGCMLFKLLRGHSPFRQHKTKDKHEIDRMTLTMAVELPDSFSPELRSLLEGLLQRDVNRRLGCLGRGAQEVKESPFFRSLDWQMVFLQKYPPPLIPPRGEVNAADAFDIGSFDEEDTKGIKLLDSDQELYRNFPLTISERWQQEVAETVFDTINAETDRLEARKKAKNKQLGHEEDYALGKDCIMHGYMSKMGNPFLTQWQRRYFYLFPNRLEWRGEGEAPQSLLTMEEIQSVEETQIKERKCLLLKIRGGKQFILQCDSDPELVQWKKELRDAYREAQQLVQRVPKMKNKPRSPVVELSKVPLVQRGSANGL
Test: In vitro tubulin phosphorylation assay with purified GRK2
Type: biochemical
Conditions: 10 μM DFPQ, 60-minute time course, FIG. 3C
Description: FIGS. 3A-3D: DFPQ inhibits GRK-mediated phosphorylation of the β2AR. FIG. 3A: Representative time course of agonist promoted phosphorylation of the β2AR. […] Cells were lysed and the FLAG-β2AR was immunoprecipitated. Phosphorylation at […] and 356 was analyzed by western blot using a pSer^355/356 antibody while total β2AR was measured using a β2AR C-terminal antibody. The western blot is representative of at least 3 experiments and is quantified in FIG. 3B. FIG. 3C: […] FIG. 3D: Bar graphs represent pixel densitometry of radiolabeled tubulin at the 60 min timepoint from 4 experiments. […]® ADRB2 cells (DiscoveRx) were maintained with the AssayCompleteTM Cell Culture kit (DiscoveRx catalog #92-[…]). […] Cells were read every three minutes for 18 minutes on a PolarStar Optima plate reader (BMG) to establish peak signal. […] Luminescence was determined at room temperature (23-25° C.) on a PolarStar Optima plate reader (BMG). […] Relative assay bias was calculated from the ratio of normalized cAMP and arrestin recruitment responses. […] BRET was measured using a Tecan Infinite F500 microplate reader. […] Bound [35 S]GTPγS was collected by rapid filtration on GF/B filters, washed 4 times with 4 ml of cold GTPγS wash buffer and analyzed by liquid scintillation counting. […] Immunoprecipitated proteins were separated by SDS-PAGE and analyzed by western blot using a β2AR C-terminal tail or phospho-specific antibody. […]

phosphorylation of tubulin by GRK2: unaffected
SMILES: Fc1ccc(Nc2nc(NC3CCCCC3)c3ccccc3n2)cc1F [DFPQ, N^4-cyclohexyl-N^2-(3,4-difluorophenyl)quinazoline-2,4-diamine]

Reference: US20240166626A1, “Compounds and Methods for Preventing, Treating, or Ameliorating Airway Disease” (THOMAS JEFFERSON UNIVERSITY, priority 2021, published 2024)
